Experimental findings from PubChem BioAssay AID1645866 (Buhrlage Lab, Dana-Farber Cancer Institute and Novartis …, 2021) are described below.

The experiment deals with Ubiquitin carboxyl-terminal hydrolase 28 (Homo sapiens) (UniProt Q96RU2). Put plainly: Ubiquitin-specific peptidase 28 DUB inhibitors, biochemical concentration-dependence assay, validation of primary screening hits (AID 1645866). Particulars: purified USP28, ubiquitin-rhodamine fluorescence, 30 min.

pIC50: −log10 of the molar value. The source made the active and inactive calls.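 Rule for the calls: active = in confirmatory dose-response testing, peak deubiquitinase inhibition of 30% or more; inactive = the rest.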

Chain of Ubiquitin carboxyl-terminal hydrolase 28 (Homo sapiens) (Q96RU2 whole entry, looked up): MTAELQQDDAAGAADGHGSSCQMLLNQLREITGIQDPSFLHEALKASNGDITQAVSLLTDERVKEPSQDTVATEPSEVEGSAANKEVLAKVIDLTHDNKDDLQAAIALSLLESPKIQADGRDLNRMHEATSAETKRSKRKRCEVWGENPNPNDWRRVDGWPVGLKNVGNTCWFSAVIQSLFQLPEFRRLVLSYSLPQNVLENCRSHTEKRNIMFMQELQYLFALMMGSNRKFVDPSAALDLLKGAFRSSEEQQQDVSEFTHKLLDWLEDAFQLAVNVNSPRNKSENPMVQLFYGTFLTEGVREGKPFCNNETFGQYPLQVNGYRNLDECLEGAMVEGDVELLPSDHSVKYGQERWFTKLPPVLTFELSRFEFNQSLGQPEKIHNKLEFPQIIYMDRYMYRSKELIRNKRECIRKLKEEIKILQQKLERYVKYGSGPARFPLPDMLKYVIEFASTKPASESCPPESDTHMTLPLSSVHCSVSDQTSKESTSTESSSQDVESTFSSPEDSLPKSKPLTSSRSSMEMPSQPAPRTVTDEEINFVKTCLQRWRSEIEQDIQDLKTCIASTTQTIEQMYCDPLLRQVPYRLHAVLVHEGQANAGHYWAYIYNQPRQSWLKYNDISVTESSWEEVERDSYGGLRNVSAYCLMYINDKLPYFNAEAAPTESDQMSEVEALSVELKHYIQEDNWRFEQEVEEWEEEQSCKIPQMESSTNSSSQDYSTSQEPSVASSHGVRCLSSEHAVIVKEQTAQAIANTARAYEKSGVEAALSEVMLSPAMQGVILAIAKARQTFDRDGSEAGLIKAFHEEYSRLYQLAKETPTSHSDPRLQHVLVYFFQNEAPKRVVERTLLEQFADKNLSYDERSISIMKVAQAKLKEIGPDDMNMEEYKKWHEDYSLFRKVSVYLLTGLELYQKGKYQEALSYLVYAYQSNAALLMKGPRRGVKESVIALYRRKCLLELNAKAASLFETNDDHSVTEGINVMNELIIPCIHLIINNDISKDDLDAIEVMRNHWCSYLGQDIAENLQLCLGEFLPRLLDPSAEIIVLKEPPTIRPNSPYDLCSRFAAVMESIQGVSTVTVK

Turning to `Cc1nn(Cc2ccccc2)c2sc(C(=O)Nc3nc4ccccc4[nH]3)cc12`, the pIC50 was 4.68. Still for that read-out and setting: then `O=C(Nc1cccc2ccccc12)C1CCCN(S(=O)(=O)Cc2ccccc2)C1` (stereo not given), with 4.73; and `O=C(Nc1ccc(-c2nnc3n2CCCCC3)cc1)c1ccc2c(c1)OCO2`, with 5.13. Consider `Cc1sc(-c2cccnc2)nc1OC(=O)c1ccc(Cl)c(Cl)c1`, for which the IC50 was > 50 µM (inactive).

In the case of `O=C1C=C(O)c2c(O)cccc2C1=O`, the negative-log IC50 (pIC50) was 4.80.

Consider `COc1ccc(CCn2cnc3c4ccccc4n(C)c3c2=O)cc1OC`, for which the pIC50 is 5.07. On to `Cc1ccc(C(C)C)cc1OCCOCCN1CCNCC1`, for which the pIC50 was 4.70.

For the compound `COc1cc(NC(=O)Cc2ccccc2)ccc1NC(=O)c1cc2ccccc2o1`, the pIC50 was 5.52. Turning to `Cc1c(-c2ccccc2)oc2c(C(=O)OCC(=O)Nc3ccccc3F)cccc2c1=O`, the IC50 is > 50 µM (inactive).

On to `Cc1ccc2c(c1)[C@]1(C(=O)N2)[C@@H](C(=O)c2ccccc2)[C@]2(C(=O)Nc3ccccc32)[C@@H]2CCCN21`, for which the pIC50 was 4.63. On the same count and under the same terms, then `Cc1c(C)n(-c2ccccc2)c2ncn(CC(=O)NCCCc3ccccc3)c(=O)c12`, with 4.64. As to `CN(C(=O)c1cccc2cccnc12)c1nc2c(s1)CCc1occc1-2`, the pIC50 is 4.57. Same read-out and setting: with `COc1ccc(NS(=O)(=O)c2ccc(NC(=O)Nc3ccc(Cl)cc3)cc2)cc1` the figure was 4.60; with `CC1CS(=O)(=O)N(c2ccc(C(=O)Nc3ccc4c(c3)OCCO4)cc2)C1=O` (stereo not given), 5.14. For `COc1ccc(C2CC(c3ccc(C)cc3)N(C(=O)C3CC3)c3ncnn32)cc1` (stereo not given), the IC50 is > 50 µM (inactive).

For `c1ccc2c(c1)ccc1nnc(-c3ccc4c(c3)OCO4)n12`, the IC50 is > 50 µM (inactive). `COc1ccc(C(=O)Nc2n[nH]c(C)c2-c2cccc(C)c2)c(OC)c1`: the pIC50 is 4.99. Same read-out and setting: then `COc1ccc(N(CC(=O)Nc2cccc(F)c2)S(=O)(=O)c2ccc(OC)c(OC)c2)cc1`, with 4.72.

For the compound `Cc1ccccc1C(=O)OCCN1C(=O)c2cccc3c(N4CCCCC4)ccc(c23)C1=O`, the IC50 was > 50 µM (inactive). Still for that read-out and setting: then `Cn1c(CCN2CCCC2)nc2cc(NS(=O)(=O)c3ccccc3)ccc21`, with > 50 µM (inactive); and `COc1cnc(-c2ccccn2)nc1Sc1ccc(C)cc1`, with > 50 µM (inactive); and `CNc1nc2c(c(=O)n1C)CN(C(=O)Nc1cccc3ccccc13)CC2`, with > 50 µM (inactive). The same measure, in the same setting: with `CCN(C(=O)c1cc2c(Cl)nc3ccccc3c2s1)c1ccccc1F` the figure was > 50 µM (inactive). `O=C(COC(=O)c1ccc(CN2CCCC2=O)cc1)c1ccc2c(c1)OCCO2`: the negative logarithm of the IC50 (pIC50) is 6.95.

As to `O=C1C[C@@H](O)[C@H](O)[C@@]23O[C@@]12C1(Oc2cccc4cccc(c24)O1)[C@@H]1O[C@@H]1[C@@H]3O`, the pIC50 is 4.61. With `COC(=O)c1cc(C)sc1NC(=O)c1cccc(OC)c1OC`, the IC50 was > 50 µM (inactive). In the case of `O=C(CC(C(=O)Nc1ccc2c(c1)OCO2)C(=O)c1ccccc1)Nc1ccc(Cl)cc1F` (stereo not given), the pIC50 was 5.01. For `COc1ccc(-c2cc(C(F)F)n3ncc(C(=O)Nc4ccc5c(c4)OCCO5)c3n2)cc1`, the IC50 is > 50 µM (inactive). As to `C=C(NC(=O)C(=C)NC(=O)c1csc(C2=N[C@@H]3c4csc(n4)[C@H]4NC(=O)c5csc(n5)[C@H]([C@](C)(O)[C@@H](C)O)NC(=O)C5CSC(=N5)/C(=C/C)NC(=O)C([C@@H](C)O)NC(=O)c5csc(n5)[C@]3(CC2)NC(=O)[C@H](C)NC(=O)C(=C)NC(=O)[C@H](C)NC(=O)C([C@@H](C)CC)NC2C=Cc3c(C(C)O)cc(nc3[C@H]2O)C(=O)OC4C)n1)C(N)=O` (stereo not given in full), the IC50 is > 50 µM (inactive). Consider `CC(OC(=O)c1c2c(nc3ccccc13)CCCCC2)C(=O)Nc1ccc2ccccc2c1` (stereo not given), for which the pIC50 was 5.29. Regarding `Cc1ccc2oc(=O)c(S(=O)(=O)N3CCCCC3)cc2c1`, the pIC50 is 4.63.

As to `Clc1cc2nc(N3CCN(c4ccccn4)CC3)c3nncn3c2cc1Cl`, the pIC50 is 5.64. Same read-out and setting: with `CCOC(=O)c1ccc(S(=O)(=O)N2CCC(C(=O)OC(C)C(=O)Nc3cccc([N+](=O)[O-])c3)CC2)cc1` (stereo not given) the figure was 5.03. On to `COc1ccc(NC(=O)Nc2cccc(-c3nnc(-c4ccccc4)o3)c2)cc1OC`, for which the pIC50 is 4.66. As to `Cc1cnnn1-c1ccc(C(=O)Nc2ccc(Cl)cc2)cc1`, the pIC50 was 4.69. As for `CC(C)(C)C(=O)NC(c1ccccc1)c1nnc(N2CCOCC2)o1` (stereo not given), the IC50 is > 50 µM (inactive). `O=C(CCc1nnc2n(Cc3ccc(F)cc3)c(=O)c3ccccc3n12)N1CCN(c2ccccn2)CC1`: the IC50 is > 50 µM (inactive). As for `Cc1ccc(Cn2c(=O)n(CCC(=O)NCCc3ccccc3)c(=O)c3ccccc32)cc1`, the pIC50 was 4.89. Regarding `O=C1CN(C(=O)COC(=O)CCCN2C(=O)c3cccc4cccc(c34)C2=O)c2ccccc2N1`, the pIC50 was 4.31. Take `Cc1ccc2nc(-c3cccc(-c4nc5ccc(C)cc5[nH]4)n3)[nH]c2c1`: the IC50 was > 50 µM (inactive). `Cc1ccc(Cn2c(=O)c3ccccc3n3c(CCC(=O)N4CCN(c5ccccn5)CC4)nnc23)cc1`: the pIC50 is 5.26.

In the case of `Cc1noc(C)c1S(=O)(=O)Nc1ccc(C(=O)Nc2ccc3c(c2)OCCO3)cc1`, the pIC50 was 5.42. On the same count and under the same terms, with `Cc1cc2nc(/C=C/c3ccccc3)n(Cc3cccc(F)c3)c2cc1C` the figure was 5.31. The same measure, in the same setting: with `CC(C)Cc1nc2sc3c(NCCN4CCOCC4)ncnc3c2c2c1CCC2` the figure was 6.08; with `Cc1ccc(NC(=O)CSc2nc3c(cc2C#N)C(=O)CCC3)cc1`, 4.68. Same read-out and setting: with `COCCn1c(=O)[nH]c2cc(C(=O)NCCNc3ccc([N+](=O)[O-])cc3C#N)ccc2c1=O` the figure was 5.69; with `Cc1nc(C(=O)NC2(O)C(=O)c3ccccc3C2=O)cs1`, 4.85. Turning to `Cc1ncc(CO)c2c1Oc1nc(-c3cccc(Cl)c3)nc(SCC(=O)N3CCCCC3)c1C2`, the IC50 was > 50 µM (inactive). For the compound `O=C(Cn1cnc(-c2noc(-c3ccncc3)n2)c1)N1CCN(c2ccccc2F)CC1`, the IC50 was > 50 µM (inactive).

On to `Cc1cc(C(=O)N2CCN(C3CCN(Cc4ccc(Cl)o4)CC3)C(=O)C2)c(C)o1`, for which the IC50 is > 50 µM (inactive).

As for `Cc1cc(C)nc(SCCn2c(N3CCC(Cc4ccccc4)CC3)nc3c2c(=O)n(C)c(=O)n3C)n1`, the IC50 was > 50 µM (inactive).

In the case of `Cc1cccc(NC(=O)c2ccn(COc3ccc(F)cc3F)n2)c1C`, the IC50 was > 50 µM (inactive). Turning to `O=C(Nc1ccc(F)cc1F)c1csc(-c2ccccc2)n1`, the pIC50 is 4.61. On the same count and under the same terms, with `COc1ccc(Cn2c(=O)[nH]c3cc(C(=O)NCCCN4CCN(c5cccc(Cl)c5)CC4)ccc3c2=O)cc1` the figure was 5.46. In the case of `CC(C)(C)C(=O)C1C2C(=O)N(c3ccc4c(c3)OCO4)C(=O)C2C2c3ccccc3C=CN12` (stereo not given), the IC50 was > 50 µM (inactive).

In the case of `Cc1ccc(C(=O)CCC(=O)OCC(=O)c2ccc3[nH]c(=O)[nH]c3c2)cc1`, the pIC50 was 4.62.

On to `CCOC(=O)c1ccc(NC(=O)COc2cccc3c2CCN(CC)C3=O)cc1`, for which the pIC50 is 5.27.

Turning to `COc1cc(Cl)c(C)cc1NC(=O)Cn1c(=O)n(CC(=O)NCc2ccco2)c(=O)c2ccccc21`, the pIC50 is 5.47.

Regarding `O=C(Cn1cccc1-c1nc(-c2ccccc2)cs1)N1CCOCC1`, the pIC50 was 4.74. Same read-out and setting: then `CCc1ccc(NC(=O)Cc2nnc3cc(-c4nc(C)no4)ccn23)cc1`, with 5.39. On to `COc1cc(Cl)ccc1C(=O)Nc1cccc(-n2cnnn2)c1C`, for which the pIC50 is 4.95. On to `COc1cccc(-n2nnc(C(=O)Nc3ccc(C)c(C)c3)c2C)c1`, for which the pIC50 is 5.06.

For `COc1ccc(C)cc1NC(=O)C1CC(=O)Nc2nc3ccccc3n21` (stereo not given), the pIC50 is 4.61. Same read-out and setting: then `CC(C)(C)C(=O)Nc1ccc(SCc2nnc(-c3ccccc3)o2)cc1`, with 4.66; and `CCc1cccc(CC)c1NC(=O)COC(=O)c1cc2cccc(OC)c2oc1=O`, with 4.78; and `O=C(/C=C/c1ccc(F)cc1)N1CCC(Cc2ccccc2)CC1`, with 4.32. As for `O=C(CSc1nc2cc(C(F)(F)F)ccc2s1)NCC(=O)c1ccccc1`, the pIC50 is 5.19. Consider `Cc1nn(-c2ccccc2)c2c1N=C1C(Cl)=CC(Cl)=CN1C21C(=O)Nc2ccccc21` (stereo not given), for which the IC50 is > 50 µM (inactive).

In the case of `O=C1Nc2c(Cl)cc(Cl)cc2C1(O)c1sc(NC2CCCCC2)nc1-c1ccccc1` (stereo not given), the pIC50 is 4.61. For `Cc1ccc(C)c(-c2cc3c(=O)n(Cc4noc(CN5CCCCC5)n4)ccn3n2)c1`, the pIC50 is 5.35. Same read-out and setting: with `O=c1c(-c2nc(C3CC3)no2)cccn1Cc1c(F)cccc1Cl` the figure was 5.74. Same read-out and setting: then `COc1ccc(NC(=O)C2Oc3ccc(C)cc3NC2=O)cc1Cl` (stereo not given), with 4.71. On to `O=C(NCc1ccc2c(c1)OCO2)c1cc(-c2cc(Cl)ccc2O)n[nH]1`, for which the pIC50 is 4.92. For the compound `O=S(=O)(c1cccc(F)c1)N1CCc2nc3ccccc3n2CC1`, the pIC50 is 4.97.

In the case of `Cc1ccc(NC(=O)Cc2nnc3c(-c4nc(C5CC5)no4)cccn23)cc1`, the negative-log IC50 (pIC50) was 5.45.

Take `O=C(COC(=O)c1cc2c(s1)CCC2)c1ccc2[nH]c(=O)[nH]c2c1`: the pIC50 was 5.19.

As to `CC1=C[C@H]2N(c3ccc(C)cc31)[C@H](C(=O)c1cccs1)[C@@H](C(=O)c1ccc(F)cc1)[C@]21C(=O)Nc2ccccc21`, the IC50 is > 50 µM (inactive). With `CCOc1ccc(C(=O)Cn2c(=O)n(CC3CCCO3)c(=O)c3cc(OC)c(OC)cc32)cc1Cl` (stereo not given), the pIC50 is 4.64. Still for that read-out and setting: then `Cc1cc(C)c(NC(=O)CSc2nc3nccnc3c(=O)n2Cc2ccccc2Cl)c(C)c1`, with 5.48. Regarding `Cc1ccccc1N1C(=O)/C(=C\c2cccn2C)c2ccccc2C1=O`, the IC50 was > 50 µM (inactive). Turning to `CCc1ccc(-c2nc(SCC(=O)Nc3ccc4[nH]c(=O)[nH]c4c3)n[nH]2)cc1`, the pIC50 was 4.63. Regarding `COc1ccc(OC)c(NC(=O)Cn2c(=O)n(CC3CCC(C(=O)NCCc4ccccc4)CC3)c(=O)c3ccccc32)c1` (stereo not given), the pIC50 was 5.34. `O=c1ccc(-c2noc(Cc3cccc(Cl)c3)n2)c[nH]1`: the pIC50 was 7.25. For `CC1CCCN(CCCNC(=O)c2ccc(N3CCc4ccccc43)s2)C1` (stereo not given), the pIC50 was 4.73. With `O=C(Nc1nnc2n1CCCS2)c1cccc(Cl)c1`, the pIC50 is 5.92.

Usually pIC50 stands for the IC50 on a negative log10 scale, so that one unit is a factor of ten. By IC50 is commonly meant the midpoint of a concentration-inhibition curve.
